According to patent US12077503B2, “Substituted cyclic amides and their use as herbicides” (FMC CORPORATION, priority 2015, dated 2024):
Read-outs that look alike come from different tables or passages of the source.

Tests used:
Format in all cases: in vivo
[1] = tested on: blackgrass (Alopecurus myosuroides); test: Test A postemergence; conditions: Alopecurus myosuroides, post-emergence, 240 h, postemergence, read-out: Blackgrass plant response rating; for pest or weed control at 125 g/ha: 125 g ai/ha, visual injury on 0 to 100 scale (0 no effect, 100 complete control), approx. 10 d; for pest or weed control at 500 g/ha: 500 g ai/ha, 0 to 100 scale, 0 is no effect, 100 is complete control
How it was run: (§1)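 Compounds were formulated in a non-phytotoxic solvent mixture with surfactant and applied as a preemergence directed soil spray after seeding, or sprayed postemergence over plants 2 to 10 cm tall at the one- to two-leaf stage. Evaluation after about 10 d compared treated with untreated controls, using a scale from 0 (no effect) to 100 (complete control).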

[2] = tested on: corn (Zea mays); test: Test A postemergence; conditions: Zea mays, post-emergence, 240 h, postemergence, read-out: Corn plant response rating; for plant injury at 125 g/ha: 125 g ai/ha, visual injury on 0 to 100 scale (0 no effect, 100 complete control), approx. 10 d; for plant injury at 500 g/ha: 500 g ai/ha, 0 to 100 scale, 0 is no effect, 100 is complete control
How it was run: as §1

[3] = tested on: Galium (catchweed bedstraw, Galium aparine); test: Test A postemergence; conditions: Galium, post-emergence, 240 h, postemergence, read-out: Galium plant response rating; for pest or weed control at 125 g/ha: 125 g ai/ha, visual injury on 0 to 100 scale (0 no effect, 100 complete control), approx. 10 d; for pest or weed control at 500 g/ha: 500 g ai/ha, 0 to 100 scale, 0 is no effect, 100 is complete control
How it was run: as §1

[4] = tested on: wheat (Triticum aestivum); test: Test A postemergence; conditions: Triticum aestivum, post-emergence, 240 h, postemergence, read-out: Wheat plant response rating; for plant injury at 125 g/ha: 125 g ai/ha, visual injury on 0 to 100 scale (0 no effect, 100 complete control), approx. 10 d; for plant injury at 500 g/ha: 500 g ai/ha, 0 to 100 scale, 0 is no effect, 100 is complete control
How it was run: as §1

[5] = tested on: barnyardgrass (Echinochloa crus-galli); test: Test A postemergence; conditions: Echinochloa crus-galli, post-emergence, 240 h, postemergence, read-out: Barnyardgrass plant response rating; for pest or weed control at 125 g/ha: 125 g ai/ha, visual injury on 0 to 100 scale (0 no effect, 100 complete control), approx. 10 d; for pest or weed control at 500 g/ha: 500 g ai/ha, 0 to 100 scale, 0 is no effect, 100 is complete control
How it was run: as §1

[6] = tested on: pigweed (Amaranthus retroflexus); test: Test A postemergence; conditions: Amaranthus retroflexus, post-emergence, 240 h, postemergence, read-out: Pigweed plant response rating; for pest or weed control at 125 g/ha: 125 g ai/ha, visual injury on 0 to 100 scale (0 no effect, 100 complete control), approx. 10 d; for pest or weed control at 500 g/ha: 500 g ai/ha, 0 to 100 scale, 0 is no effect, 100 is complete control
How it was run: as §1

[7] = tested on: giant foxtail (Setaria faberii); test: Test A postemergence; conditions: Setaria faberi, post-emergence, 240 h, postemergence, read-out: Foxtail, Giant plant response rating; for pest or weed control at 125 g/ha: 125 g ai/ha, visual injury on 0 to 100 scale (0 no effect, 100 complete control), approx. 10 d; for pest or weed control at 500 g/ha: 500 g ai/ha, 0 to 100 scale, 0 is no effect, 100 is complete control
How it was run: as §1

[8] = tested on: ragweed (common ragweed, Ambrosia elatior); test: Test A postemergence; conditions: Ambrosia artemisiifolia, post-emergence, 240 h, postemergence, read-out: Ragweed plant response rating; for pest or weed control at 125 g/ha: 125 g ai/ha, visual injury on 0 to 100 scale (0 no effect, 100 complete control), approx. 10 d; for pest or weed control at 500 g/ha: 500 g ai/ha, 0 to 100 scale, 0 is no effect, 100 is complete control
How it was run: as §1

[9] = tested on: ryegrass, Italian (Italian ryegrass, Lolium multiflorum); test: Test A postemergence; conditions: Lolium multiflorum, post-emergence, 240 h, postemergence, read-out: Ryegrass, Italian plant response rating; for pest or weed control at 125 g/ha: 125 g ai/ha, visual injury on 0 to 100 scale (0 no effect, 100 complete control), approx. 10 d; for pest or weed control at 500 g/ha: 500 g ai/ha, 0 to 100 scale, 0 is no effect, 100 is complete control
How it was run: as §1

[10] = tested on: Kochia (Kochia scoparia); test: Test A preemergence; conditions: Bassia scoparia, pre-emergence, 240 h, preemergence, read-out: Kochia plant response rating; for pest or weed control at 125 g/ha: 125 g ai/ha, approx. 10 d; for pest or weed control at 500 g/ha: 500 g ai/ha
How it was run: as §1

[11] = tested on: barnyardgrass (Echinochloa crus-galli); test: Test A preemergence; conditions: Echinochloa crus-galli, pre-emergence, 240 h, preemergence, read-out: Barnyardgrass plant response rating; for pest or weed control at 125 g/ha: 125 g ai/ha, approx. 10 d; for pest or weed control at 500 g/ha: 500 g ai/ha
How it was run: as §1

[12] = tested on: pigweed (Amaranthus retroflexus); test: Test A preemergence; conditions: Amaranthus retroflexus, pre-emergence, 240 h, preemergence, read-out: Pigweed plant response rating; for pest or weed control at 125 g/ha: 125 g ai/ha, approx. 10 d; for pest or weed control at 500 g/ha: 500 g ai/ha
[13] = tested on: giant foxtail (Setaria faberii); test: Test A preemergence; conditions: Setaria faberi, pre-emergence, 240 h, preemergence, read-out: Foxtail, Giant plant response rating; for pest or weed control at 125 g/ha: 125 g ai/ha, approx. 10 d; for pest or weed control at 500 g/ha: 500 g ai/ha
How it was run: as §1

[14] = tested on: ragweed (common ragweed, Ambrosia elatior); test: Test A preemergence; conditions: Ambrosia artemisiifolia, pre-emergence, 240 h, preemergence, read-out: Ragweed plant response rating; for pest or weed control at 125 g/ha: 125 g ai/ha, approx. 10 d; for pest or weed control at 500 g/ha: 500 g ai/ha
How it was run: as §1

[15] = tested on: ryegrass, Italian (Italian ryegrass, Lolium multiflorum); test: Test A preemergence; conditions: Lolium multiflorum, pre-emergence, 240 h, preemergence, read-out: Ryegrass, Italian plant response rating; for pest or weed control at 125 g/ha: 125 g ai/ha, approx. 10 d; for pest or weed control at 500 g/ha: 500 g ai/ha
How it was run: as §1

[16] = 0 to 100 scale where 0 is no effect and 100 is complete control
[17] = visual injury rating about 10 d after treatment, 0 to 100 scale (0 no effect, 100 complete control)

CC(C)Oc1ccc([C@H]2CNC(=O)[C@@H]2C(=O)Nc2ccccc2F)cc1 [Compound 1135]
0%: pest or weed control at 125 g/ha [1] | pest or weed control at 500 g/ha [1] | plant injury at 125 g/ha [2] | plant injury at 500 g/ha [2] | pest or weed control at 125 g/ha [3] | pest or weed control at 500 g/ha [3] | plant injury at 125 g/ha [4] | plant injury at 500 g/ha [4] | pest or weed control at 125 g/ha [5] | pest or weed control at 500 g/ha [5] | pest or weed control at 125 g/ha [6] | pest or weed control at 500 g/ha [6] | pest or weed control at 125 g/ha [7] | pest or weed control at 500 g/ha [7] | pest or weed control at 125 g/ha [8] | pest or weed control at 500 g/ha [8] | pest or weed control at 125 g/ha [9] | pest or weed control at 500 g/ha [9] | pest or weed control at 125 g/ha [10, 16] | pest or weed control at 500 g/ha [10, 16] | pest or weed control at 125 g/ha [11, 16] | pest or weed control at 500 g/ha [11, 16] | pest or weed control at 125 g/ha [12, 16] | pest or weed control at 500 g/ha [12, 16] | pest or weed control at 125 g/ha [13, 16] | pest or weed control at 500 g/ha [13, 16] | pest or weed control at 125 g/ha [14, 16] | pest or weed control at 500 g/ha [14, 16] | pest or weed control at 125 g/ha [15, 16] | pest or weed control at 500 g/ha [15, 16]

CN1C[C@H](c2cc(F)cc(F)c2)[C@@H](C(=O)Nc2ncccc2Cl)C1=O [Compound 1097]
0%: pest or weed control at 125 g/ha [1] | pest or weed control at 500 g/ha [1] | plant injury at 125 g/ha [2] | plant injury at 500 g/ha [2] | pest or weed control at 125 g/ha [3] | pest or weed control at 500 g/ha [3] | plant injury at 125 g/ha [4] | plant injury at 500 g/ha [4] | pest or weed control at 125 g/ha [5] | pest or weed control at 500 g/ha [5] | pest or weed control at 125 g/ha [6] | pest or weed control at 500 g/ha [6] | pest or weed control at 125 g/ha [7] | pest or weed control at 500 g/ha [7] | pest or weed control at 125 g/ha [8] | pest or weed control at 500 g/ha [8] | pest or weed control at 125 g/ha [9] | pest or weed control at 500 g/ha [9] | pest or weed control at 125 g/ha [10, 16] | pest or weed control at 500 g/ha [10, 17] | pest or weed control at 125 g/ha [11, 16] | pest or weed control at 500 g/ha [11, 17] | pest or weed control at 125 g/ha [12, 16] | pest or weed control at 500 g/ha [12, 17] | pest or weed control at 125 g/ha [13, 16] | pest or weed control at 500 g/ha [13, 17] | pest or weed control at 125 g/ha [14, 16] | pest or weed control at 500 g/ha [14, 17] | pest or weed control at 125 g/ha [15, 16] | pest or weed control at 500 g/ha [15, 17]
